Reference: patent US8916702B2 (priority 2012, dated 2014)

Tested on: HCV pseudoparticles (genotype 1a HCV E1 and E2 envelope, H77C isolate)
Assay: microbe, parasite or virus in culture
Assay type: cell-based
Settings: Hepatitis C virus, Huh-7, 48 h, HCV pseudoparticle infection of Huh7 cells, luciferase 2 days after infection; average of duplicates

Row | SMILES | EC50 [nM]
1 | C[C@H](NC(=O)C(=O)NCC[C@H](NC(=O)c1ccc(Nc2nc(NC3(c4ccc(Cl)cc4)CC3)nc(OCC(F)(F)F)n2)cc1)C(=O)O)C1CCCCC1 [Compound 1212] | 0.07

Same assay, conditions: Hepatitis C virus, Huh-7, 48 h, HCV pseudoparticles (genotype 1a, H77C) in Huh7 cells; average of duplicate; luciferase 2 days after infection

Row | SMILES | EC50 [nM]
2 | CC(C)(CNC(=O)C(=O)NC1(c2ccc(F)cc2)CC1)CNC(=O)c1ccc(Nc2nc(NC3(c4ccc(Cl)cc4)CC3)nc(OCC(F)(F)F)n2)cc1 [Compound 3013] | 0.066
3 | COC(=O)[C@H](CNC(=O)C(=O)Nc1ccc(OCCc2ccccn2)cc1)NC(=O)c1ccc(Nc2nc(NC3(c4ccc(Cl)cc4)CC3)nc(OCC(F)(F)F)n2)cc1 [Compound 3198] | 1.02
4 | O=C(NCCNC(=O)c1ccc(Nc2nc(NC3(c4ccc(Cl)cc4)CC3)nc(OCC(F)(F)F)n2)cc1)C(=O)Nc1ccc(F)cc1 [Compound 3373] | 0.052
5 | COC(=O)[C@H](CCNC(=O)C(=O)Nc1ccc(N2CC(C)OC(C)C2)cc1)NC(=O)c1ccc(Nc2nc(NC3(c4ccc(Cl)cc4)CC3)nc(OCC(F)(F)F)n2)cc1 (stereo partly drawn) [Compound 3121] | 3.39
6 | COC(=O)[C@H](CNC(=O)C(=O)Nc1ccc(-n2ccnc2C)cc1)NC(=O)c1ccc(Nc2nc(NC3(c4ccc(Cl)cc4)CC3)nc(OCC(F)(F)F)n2)cc1 [Compound 3203] | 5.47

Same assay, conditions: Hepatitis C virus, Huh-7, 48 h, read-out: Activity (EC50 class), HCV pseudoparticle infection of Huh7 cells, luciferase 2 days after infection; EC50 expressed as class A/B

Row | SMILES | EC50 [nM]
7 | Cn1ccc(NC(=O)C(=O)NC[C@H](NC(=O)c2ccc(Nc3nc(NC4(c5ccc(Cl)cc5)CC4)nc(OCC(F)(F)F)n3)cc2)C(=O)O)n1 [Compound 1351] | 0.01 to 10
8 | CC(C)(CNC(=O)C(=O)Nc1ccc(C(C)(C)C)cc1)CNC(=O)c1ccc(Nc2nc(NC3(c4ccc(Cl)cc4)CC3)nc(OCC(F)(F)F)n2)cc1 [Compound 1576] | 0.01 to 10
9 | O=C(NCc1c(F)cccc1F)C(=O)NC[C@H](NC(=O)c1ccc(Nc2nc(NC3(c4ccc(Cl)cc4)CC3)nc(OCC(F)(F)F)n2)cc1)C(=O)O [Compound 1170] | 0.01 to 10
10 | COC(=O)[C@@H](CCNC(=O)C(=O)NCC1(NC(=O)OC(C)(C)C)CC1)NC(=O)c1ccc(Nc2nc(NC3(c4ccc(Cl)cc4)CC3)nc(OCC(F)(F)F)n2)cc1 [Compound 1381] | 0.01 to 10
11 | COC(=O)[C@H](CNC(=O)C(=O)Nn1cnnc1)NC(=O)c1ccc(Nc2nc(NC3(c4ccc(Cl)cc4)CC3)nc(OCC(F)(F)F)n2)cc1 [Compound 1243] | 10 to 1000
12 | CN(C)CCNC(=O)C(=O)NC[C@@H](NC(=O)c1ccc(Nc2nc(NC3(c4ccc(Cl)cc4)CC3)nc(OCC(F)(F)F)n2)cc1)C(=O)O [Compound 1045] | 0.01 to 10
13 | COC(=O)[C@@H](CCNC(=O)C(=O)NCC1CC1c1ccc(F)cc1)NC(=O)c1ccc(Nc2nc(NC3(c4ccc(Cl)cc4)CC3)nc(OCC(F)(F)F)n2)cc1 (stereo partly drawn) [Compound 1389] | 0.01 to 10
14 | COc1cccc(CCNC(=O)C(=O)NCC[C@H](NC(=O)c2ccc(Nc3nc(NC4(c5ccc(Cl)cc5)CC4)nc(OCC(F)(F)F)n3)cc2)C(=O)O)c1 [Compound 1330] | 0.01 to 10
15 | COC(=O)[C@H](CCNC(=O)C(=O)Nc1ccc(F)c(F)c1F)NC(=O)c1ccc(Nc2nc(NC3(c4ccc(Cl)cc4)CC3)nc(OCC(F)(F)F)n2)cc1 [Compound 1508] | 0.01 to 10
16 | O=C(NC[C@H](NC(=O)c1ccc(Nc2nc(NC3(c4ccc(Cl)cc4)CC3)nc(OCC(F)(F)F)n2)cc1)C(=O)O)C(=O)NC1(Cc2ccccc2)CC1 [Compound 1415] | 0.01 to 10
17 | NC(=O)C(=O)N1CCCC(C(NC(=O)c2ccc(Nc3nc(NC4(c5ccc(Cl)cc5)CC4)nc(OCC(F)(F)F)n3)cc2)C(=O)O)C1 (stereo not drawn) [Compound 1018, 2-(1-(2-amino-2-oxoacetyl)piperidin-3-yl)-2-(4-(4-(1-(4-chlorophenyl)cyclopropylamino)-6-(2,2,2-trifluoroethoxy)-1,3,5-triazin-2-ylamino)benzamido)acetic acid] | 0.01 to 10
18 | COC(=O)[C@H](CCNC(=O)C(=O)NC1CCCCCCC1)NC(=O)c1ccc(Nc2nc(NC3(c4ccc(Cl)cc4)CC3)nc(OCC(F)(F)F)n2)cc1 [Compound 1104] | 0.01 to 10
19 | O=C(NC[C@H](NC(=O)c1ccc(Nc2nc(NC3(c4ccc(Cl)cc4)CC3)nc(OCC(F)(F)F)n2)cc1)C(=O)O)C(=O)Nc1cccc(C(F)(F)F)c1 [Compound 1359] | 0.01 to 10
20 | CN(C)C(=O)C(=O)NCC(C)(C)CNC(=O)c1ccc(Nc2nc(NC3(c4ccc(Cl)cc4)CC3)nc(OCC(F)(F)F)n2)cc1 [Compound 1008, N1-(3-(4-(4-(1-(4-chlorophenyl)cyclopropylamino)-6-(2,2,2-trifluoroethoxy)-1,3,5-triazin-2-ylamino)benzamido)-2,2-dimethylpropyl)-N2,N2-dimethyloxalamide] | 0.01 to 10
21 | COc1ccc(NC(=O)C(=O)NC[C@H](NC(=O)c2ccc(Nc3nc(NC4(c5ccc(Cl)cc5)CC4)nc(OCC(F)(F)F)n3)cc2)C(=O)O)cn1 [Compound 1349] | 0.01 to 10
22 | C[C@H](NC(=O)C(=O)NCC[C@H](NC(=O)c1ccc(Nc2nc(NC3(c4ccc(Cl)cc4)CC3)nc(OCC(F)(F)F)n2)cc1)C(=O)O)C1CCCCC1 [Compound 1212] | 0.01 to 10

Same assay, conditions: Hepatitis C virus, Huh-7, 48 h, read-out: Activity (EC50 class), HCV pseudoparticles, Huh7 cells, luciferase 2 days after infection; average of duplicates

Row | SMILES | EC50 [nM]
23 | CC(C)(CNC(=O)C(=O)Nc1nc2cc(O)ccc2s1)CNC(=O)c1ccc(Nc2nc(NC3(c4ccc(Cl)cc4)CC3)nc(OCC(F)(F)F)n2)cc1 [Compound 3801] | 0.01 to 10
24 | COC(=O)[C@H](CCNC(=O)C(=O)Nc1cccc(CCC(N)O)c1)NC(=O)c1ccc(Nc2nc(NC3(c4ccc(Cl)cc4)CC3)nc(OCC(F)(F)F)n2)cc1 (stereo partly drawn) [Compound 3609] | 0.01 to 10
25 | Cc1ccc(NC(=O)C(=O)NCC(C)(O)CNC(=O)c2ccc(Nc3nc(NC4(c5ccc(Cl)cc5)CC4)nc(OCC(F)(F)F)n3)cc2)cc1 (stereo not drawn) [Compound 3832] | 0.01 to 10
26 | COC(=O)[C@H](CCNC(=O)C(=O)Nc1cccc(-c2c[nH]cn2)c1)NC(=O)c1ccc(Nc2nc(NC3(c4ccc(Cl)cc4)CC3)nc(OCC(F)(F)F)n2)cc1 [Compound 3608] | 0.01 to 10
27 | CNS(=O)(=O)c1cccc(NC(=O)C(=O)NC[C@H](NC(=O)c2ccc(Nc3nc(NC4(c5ccc(Cl)cc5)CC4)nc(OCC(F)(F)F)n3)cc2)C(=O)Cl)c1 [Compound 3782] | 0.01 to 10
28 | COC(=O)[C@H](CNC(=O)C(=O)Nc1ccc(Oc2cccnc2)nc1)NC(=O)c1ccc(Nc2nc(NC3(c4ccc(Cl)cc4)CC3)nc(OCC(F)(F)F)n2)cc1 [Compound 3699] | 0.01 to 10
29 | O=C(NC[C@H](NC(=O)c1ccc(Nc2nc(NC3(c4ccc(Cl)cc4)CC3)nc(OCC(F)(F)F)n2)cc1)C(=O)Cl)C(=O)Nc1cccc(Oc2ccccn2)c1 [Compound 3781] | 0.01 to 10
30 | COc1cc2sc(NC(=O)C(=O)NCC(C)(C)CNC(=O)c3ccc(Nc4nc(NC5(c6ccc(Cl)cc6)CC5)nc(OCC(F)(F)F)n4)cc3F)nc2cc1Cl [Compound 3680] | 0.01 to 10
31 | CCc1ccc(COc2nc(Nc3ccc(C(=O)NCC(C)(C)CNC(=O)C(=O)Nc4ccc(C)cc4)cc3)nc(NC3(c4ccc(Cl)cc4)CC3)n2)cc1 [Compound 3842] | 0.01 to 10
32 | COc1cc2nc(NC(=O)C(=O)NCC(C)(C)CNC(=O)c3ccc(Nc4nc(NC5(c6ccc(Cl)cc6)CC5)nc(OCC(F)(F)F)n4)cc3F)sc2cc1OC [Compound 3677] | 0.01 to 10
33 | O=C(NC[C@H](NC(=O)c1ccc(Nc2nc(NC3(c4ccc(Cl)cc4)CC3)nc(OCC(F)(F)F)n2)cc1)C(=O)O)C(=O)Nc1ccc(Oc2ccc(Cl)cc2Cl)cc1 [Compound 3753] | 0.01 to 10
34 | O=C(NC[C@H](NC(=O)c1ccc(Nc2nc(NC3(c4ccc(Cl)cc4)CC3)nc(OCC(F)(F)F)n2)cc1)C(=O)O)C(=O)Nc1cccc(OC(F)(F)F)c1 [Compound 3749] | 0.01 to 10

Same assay, conditions: Hepatitis C virus, Huh-7, read-out: Activity (EC50 class), HCV pseudoparticles (genotype 1a, H77C) in Huh7 cells; EC50 expressed as class A/B

Row | SMILES | EC50 [nM]
35 | CC(C)(CNC(=O)C(=O)NC1(c2ccc(F)cc2)CC1)CNC(=O)c1ccc(Nc2nc(NC3(c4ccc(Cl)cc4)CC3)nc(OCC(F)(F)F)n2)cc1 [Compound 3013] | 0.01 to 10
36 | COc1ccccc1-c1ccccc1NC(=O)C(=O)NCC(C)(C)CNC(=O)c1ccc(Nc2nc(NC3(c4ccc(Cl)cc4)CC3)nc(OCC(F)(F)F)n2)cc1 [Compound 3050] | 0.01 to 10
37 | CC(C)(CNC(=O)C(=O)Nc1ccc(C(F)(F)F)cc1)CNC(=O)c1ccc(Nc2nc(NC3(c4ccc(Cl)cc4)CC3)nc(OCC(F)(F)F)n2)cc1 [Compound 3011] | 0.01 to 10
38 | COC(=O)[C@H](CNC(=O)C(=O)Nc1ccc(-n2nc(C)cc2C)cc1)NC(=O)c1ccc(Nc2nc(NC3(c4ccc(Cl)cc4)CC3)nc(OCC(F)(F)F)n2)cc1 [Compound 3109] | 0.01 to 10
39 | COC(=O)[C@H](CNC(=O)C(=O)Nc1ccc(S(N)(=O)=O)cc1)NC(=O)c1ccc(Nc2nc(NC3(c4ccc(Cl)cc4)CC3)nc(OCC(F)(F)F)n2)cc1 [Compound 3087] | 0.01 to 10
40 | COC(=O)[C@H](CNC(=O)C(=O)Nc1ccc(OCCc2ccccn2)cc1)NC(=O)c1ccc(Nc2nc(NC3(c4ccc(Cl)cc4)CC3)nc(OCC(F)(F)F)n2)cc1 [Compound 3198] | 0.01 to 10
41 | CN(CCCN(C)C(=O)c1ccc(Nc2nc(NC3(c4ccc(Cl)cc4)CC3)nc(OCC(F)(F)F)n2)cc1)C(=O)C(=O)Nc1cc(F)cc(F)c1 [Compound 3427] | 0.01 to 10
42 | O=C(NC[C@H](NC(=O)c1ccc(Nc2nc(NC3(c4ccccc4)CC3)nc(OCC(F)(F)F)n2)cc1)C(=O)O)C(=O)Nc1ccc(Oc2ccc(F)cc2)cc1 [Compound 3269] | 0.01 to 10
43 | O=C(NCCNC(=O)c1ccc(Nc2nc(NC3(c4ccc(Cl)cc4)CC3)nc(OCC(F)(F)F)n2)cc1)C(=O)Nc1ccc(F)cc1 [Compound 3373] | 0.01 to 10
44 | COC(=O)[C@H](CCNC(=O)C(=O)Nc1ccc(N2CC(C)OC(C)C2)cc1)NC(=O)c1ccc(Nc2nc(NC3(c4ccc(Cl)cc4)CC3)nc(OCC(F)(F)F)n2)cc1 (stereo partly drawn) [Compound 3121] | 0.01 to 10
45 | Cc1cc(C)nc(N(C)c2ccc(NC(=O)C(=O)NC/C(=N/C(=O)c3ccc(Nc4nc(NC5(c6ccc(Cl)cc6)CC5)nc(OCC(F)(F)F)n4)cc3)C(=O)O)cc2)n1 [Compound 3171] | 0.01 to 10
46 | Cn1cc(NC(=O)C(=O)NCC(C)(C)CNC(=O)c2ccc(Nc3nc(NC4(c5ccc(Cl)cc5)CC4)nc(OCC(F)(F)F)n3)cc2)cn1 [Compound 3176] | 0.01 to 10
47 | COC(=O)/C(CCNC(=O)C(=O)Nc1ccc(-n2nc(C)cc2C)cc1)=N\C(=O)c1ccc(Nc2nc(NC3(c4ccc(Cl)cc4)CC3)nc(OCC(F)(F)F)n2)cc1 [Compound 3137] | 0.01 to 10
48 | CC(C)(CNC(=O)C(=O)Nc1ccccc1Oc1ccccc1)CNC(=O)c1ccc(Nc2nc(NC3(c4ccc(Cl)cc4)CC3)nc(OCC(F)(F)F)n2)cc1 [Compound 3139] | 0.01 to 10
49 | COC(=O)[C@H](CNC(=O)C(=O)Nc1ccc(-n2ccnc2C)cc1)NC(=O)c1ccc(Nc2nc(NC3(c4ccc(Cl)cc4)CC3)nc(OCC(F)(F)F)n2)cc1 [Compound 3203] | 0.01 to 10
50 | CC(C)(CNC(=O)C(=O)Nc1ccccc1C1CC1)CNC(=O)c1ccc(Nc2nc(NC3(c4ccc(Cl)cc4)CC3)nc(OCC(F)(F)F)n2)cc1 [Compound 3076] | 0.01 to 10
51 | COC(=O)[C@H](CNC(=O)C(=O)Nc1ccc(C(N)=O)cc1)NC(=O)c1ccc(Nc2nc(NC3(c4ccc(Cl)cc4)CC3)nc(OCC(F)(F)F)n2)cc1 [Compound 3088] | 0.01 to 10
